Assay results published in paper PMC7859440, “Transporter Gene Regulation in Sandwich Cultured Human Hepatocytes Through the Activation of Constitutive Androstane Receptor (CAR) or Aryl Hydrocarbon Receptor (AhR)” (Frontiers in Pharmacology, 2021).
Values joined by “and” are separate entries in the source; they are usually repeats but may differ in a detail not shown here. Equal values may be shown once.

Tests used:
[1] = tested on: SLC29A2 (ENT2); experiment: gene induction in sandwich-cultured human hepatocytes (qRT-PCR); assay type: cell-based; settings: SCHH, 72 h; TCDD 50 nM, OP 50 µM, CITCO 5 µM, PB 1,000 µM (highest conc.); mean ± SD, three donors
[2] = tested on: SLC15A1 (PEPT1); experiment: as above; assay type: cell-based; settings: SCHH, 72 h; TCDD 50 nM, OP 50 µM, CITCO 5 µM, PB 1,000 µM (highest conc.); mean ± SD, three donors
[3] = tested on: SLC29A1 (ENT1); experiment: as above; assay type: cell-based; settings: SCHH, 72 h; TCDD 50 nM, OP 50 µM, CITCO 5 µM, PB 1,000 µM (highest conc.); mean ± SD, three donors
[4] = tested on: SLC22A9 (OAT7); experiment: as above; assay type: cell-based; settings: SCHH, 72 h; TCDD 50 nM, OP 50 µM, CITCO 5 µM, PB 1,000 µM (highest conc.); mean ± SD, three donors
[5] = tested on: SLC51A (OSTα); experiment: as above; assay type: cell-based; settings: SCHH, 72 h; TCDD 50 nM, OP 50 µM, CITCO 5 µM, PB 1,000 µM (highest conc.); mean ± SD, three donors
[6] = tested on: SLC16A1 (MCT1); experiment: as above; assay type: cell-based; settings: SCHH, 72 h; TCDD 50 nM, OP 50 µM, CITCO 5 µM, PB 1,000 µM (highest conc.); mean ± SD, three donors
[7] = tested on: 24 hepatic drug transporter genes (mRNA); experiment: gene induction in sandwich-cultured human hepatocytes (qRT-PCR), transporter panel; assay type: cell-based; settings: sandwich-cultured human hepatocytes (SCHH), generally, 24 transporter genes, read-out: average fold change (fold induction) of transporter genes
[8] = tested on: CYP1A2; settings: SCHH, 72 h; TCDD 50 nM, OP 50 µM, CITCO 5 µM, PB 1,000 µM (highest conc.); mean ± SD, three donors
Experimental: (§1) Cryopreserved human hepatocytes were quickly thawed at 37°C and then transferred into hepatocyte thawing medium. Cells were pelleted at 100 × g for 10 min and then resuspended in hepatocyte complete plating medium (CP medium). The cells were then seeded at 65,000 cells per well in 96-well collagen I coated plates. After cell attachment (4–6 h post-seeding), CP medium was exchanged for ice-cold complete incubation medium (HI medium) containing BD Matrigel™ at the concentration of 0.25 mg/ml. The cells were then incubated overnight at 37°C in a humidified 5% CO2 incubator. […] Cell death or loss of adhesion of hepatocytes during or after treatment were examined by microscopy.
A RNeasy 96 Kit (Qiagen) was used to extract the total cellular RNA from sandwich cultured hepatocytes in 96-well plates following the manufacturer's instructions. A total volume of 200 μL RNA was obtained via the column elution provided in the RNeasy kit. […] Gene expression for each condition is expressed as a fold-change of mean ± standard deviation (SD) from three independent donors (each performed in triplicate). […]

[9] = tested on: SLC22A7 (OAT2); experiment: gene induction in sandwich-cultured human hepatocytes (qRT-PCR); assay type: cell-based; settings: SCHH, 72 h; TCDD 50 nM, OP 50 µM, CITCO 5 µM, PB 1,000 µM (highest conc.); mean ± SD, three donors
[10] = tested on: SLC10A1 (NTCP); experiment: as above; assay type: cell-based; settings: SCHH; for SLC10A1 gene suppression (reduction): 3 days, highest concentration treated
[11] = tested on: UGT1A1; experiment: as above; settings: for EC50 at 72 h: human, sandwich-cultured human hepatocytes (SCHH)
Experimental: as §1
(§2) A RNeasy 96 Kit (Qiagen) was used to extract the total cellular RNA from sandwich cultured hepatocytes in 96-well plates following the manufacturer's instructions. A total volume of 200 μL RNA was obtained via the column elution provided in the RNeasy kit. Five μL RNA extraction was mixed with TaqMan® Fast Virus 1-Step Master Mix (Life Technologies) in a final reaction volume of 20 μL and qRT-PCR was achieved using a QuantStudio 6 Flex Real-Time PCR System (Life Technologies), following the manufacturer's instructions. β-actin mRNA expression in the SCHH was used as a house-keeping gene for the normalization of target gene expressions. The mRNA levels in SCHH treated with AhR or CAR activators were expressed by a fold change, compared to the gene expressions without the treatment. The 2^−ΔΔCt method ([Livak and Schmittgen, 2001]) was used to analyze the relative changes in gene expression, where the Ct is the cycle number at which the fluorescence in the reaction crosses the preset arbitrary threshold; the ΔCt represents the difference between the Ct target and reference and the ΔΔCt is the difference between the ΔCt of the test and the ΔCt of the preassigned control. Gene expression for each condition is expressed as a fold-change of mean ± standard deviation (SD) from three independent donors (each performed in triplicate). All primer and probe sets were purchased from Life Technologies (Table 2). When concentration-dependent induction observed, the in vitro induction mRNA data were fitted using the sigmoid 3-parameter equation in GraphPad Prism (La Jolla, CA) to estimate the in vitro concentration of inducer that produced half the maximum induction values (EC50).

[12] = tested on: SLC51B (OSTβ); experiment: as above; assay type: cell-based; settings: SCHH, 72 h; TCDD 50 nM, OP 50 µM, CITCO 5 µM, PB 1,000 µM (highest conc.); mean ± SD, three donors
[13] = tested on: ABCC5 (MRP5); experiment: as above; assay type: cell-based; settings: SCHH, 72 h; TCDD 50 nM, OP 50 µM, CITCO 5 µM, PB 1,000 µM (highest conc.); mean ± SD, three donors
Experimental: as §1, §2

[14] = tested on: ABCC4 (MRP4); experiment: as above; assay type: cell-based; settings: SCHH, 72 h; TCDD 50 nM, OP 50 µM, CITCO 5 µM, PB 1,000 µM (highest conc.); mean ± SD, three donors
Experimental: as §1, §2

[15] = tested on: SLCO2B1 (OATP2B1); experiment: as above; assay type: cell-based; settings: SCHH, 72 h; TCDD 50 nM, OP 50 µM, CITCO 5 µM, PB 1,000 µM (highest conc.); mean ± SD, three donors
Experimental: as §1, §2

[16] = tested on: ABCC3 (MRP3); experiment: as above; assay type: cell-based; settings: SCHH, 72 h; TCDD 50 nM, OP 50 µM, CITCO 5 µM, PB 1,000 µM (highest conc.); mean ± SD, three donors
Experimental: as §1, §2

[17] = tested on: ABCB1 (MDR1); experiment: as above; assay type: cell-based; settings: SCHH, 72 h; TCDD 50 nM, OP 50 µM, CITCO 5 µM, PB 1,000 µM (highest conc.); mean ± SD, three donors
Experimental: as §1, §2

[18] = tested on: ABCC2 (MRP2); experiment: as above; assay type: cell-based; settings: SCHH, 72 h; TCDD 50 nM, OP 50 µM, CITCO 5 µM, PB 1,000 µM (highest conc.); mean ± SD, three donors
Experimental: as §1, §2

[19] = tested on: SLC22A1 (OCT1); experiment: as above; assay type: cell-based; settings: SCHH, 72 h; TCDD 50 nM, OP 50 µM, CITCO 5 µM, PB 1,000 µM (highest conc.); mean ± SD, three donors
Experimental: as §1, §2

[20] = tested on: SLCO1B3 (OATP1B3); experiment: as above; assay type: cell-based; settings: SCHH, 72 h; TCDD 50 nM, OP 50 µM, CITCO 5 µM, PB 1,000 µM (highest conc.); mean ± SD, three donors
Experimental: as §1, §2

[21] = tested on: ABCB11 (BSEP); experiment: as above; assay type: cell-based; settings: SCHH, 72 h; TCDD 50 nM, OP 50 µM, CITCO 5 µM, PB 1,000 µM (highest conc.); mean ± SD, three donors
Experimental: as §1, §2

[22] = tested on: ABCG2 (BCRP); experiment: as above; assay type: cell-based; settings: SCHH, 72 h; TCDD 50 nM, OP 50 µM, CITCO 5 µM, PB 1,000 µM (highest conc.); mean ± SD, three donors
Experimental: as §1, §2

[23] = tested on: SLCO4C1 (OATP4C1); experiment: as above; assay type: cell-based; settings: SCHH, 72 h; TCDD 50 nM, OP 50 µM, CITCO 5 µM, PB 1,000 µM (highest conc.); mean ± SD, three donors
Experimental: as §1, §2

[24] = tested on: ABCC6 (MRP6); experiment: as above; assay type: cell-based; settings: SCHH, 72 h; TCDD 50 nM, OP 50 µM, CITCO 5 µM, PB 1,000 µM (highest conc.); mean ± SD, three donors
Experimental: as §1, §2

[25] = tested on: SLC47A1 (MATE1); experiment: as above; assay type: cell-based; settings: SCHH, 72 h; TCDD 50 nM, OP 50 µM, CITCO 5 µM, PB 1,000 µM (highest conc.); mean ± SD, three donors
Experimental: as §1, §2

[26] = tested on: SLCO1B1 (OATP1B1); experiment: as above; assay type: cell-based; settings: SCHH, 72 h; TCDD 50 nM, OP 50 µM, CITCO 5 µM, PB 1,000 µM (highest conc.); mean ± SD, three donors
Experimental: as §1, §2

[27] = tested on: SLC22A5 (OCTN2); experiment: as above; assay type: cell-based; settings: SCHH, 72 h; TCDD 50 nM, OP 50 µM, CITCO 5 µM, PB 1,000 µM (highest conc.); mean ± SD, three donors
[28] = tested on: CYP3A4; experiment: in vitro; settings: for EC50 at 72 h: human
Experimental: as §1
as §2, with “The 2^−ΔΔCt method ([Livak and Schmittgen, 2001]) was used to analyze the relative changes in gene expression, where the Ct is the cycle number at which the fluorescence in the reaction crosses the preset arbitrary threshold; the ΔCt represents the difference between the Ct target and reference and the ΔΔCt is the difference between the ΔCt of the test and the ΔCt of the preassigned control.” left out

[29] = tested on: CYP2B6; experiment: in vitro
Experimental: as §1
as §2, with “The 2^−ΔΔCt method ([Livak and Schmittgen, 2001]) was used to analyze the relative changes in gene expression, where the Ct is the cycle number at which the fluorescence in the reaction crosses the preset arbitrary threshold; the ΔCt represents the difference between the Ct target and reference and the ΔΔCt is the difference between the ΔCt of the test and the ΔCt of the preassigned control.” left out

[30] = tested on: CYP1A1; experiment: in vitro; settings: human
Experimental: as §1
as §2, with “When concentration-dependent induction observed, the in vitro induction mRNA data were fitted using the sigmoid 3-parameter equation in GraphPad Prism (La Jolla, CA) to estimate the in vitro concentration of inducer that produced half the maximum induction values (EC50).” left out

[31] = SCHH, 72 h, TCDD 50 nM, OP 50 µM, CITCO 5 µM, PB 1,000 µM (highest conc.), mean ± SD, three donors

Clc1ccc(-c2nc3sccn3c2C=NOCc2ccc(Cl)c(Cl)c2)cc1 [CITCO, 6-(4-chlorophenyl)imidazo[2,1-b][1,3]thiazole-5-carbaldehyde O-(3,4-dichlorobenzyl)oxime]
SLC10A1 gene suppression (reduction) [10]: about 2 fold
EC50 at 72 h [11]: > 5 µM
EC50 at 72 h ([29]; human, sandwich-cultured human hepatocytes (SCHH)): 0.16 ± 0.04 µM

COc1ccc2[nH]c([S+]([O-])Cc3ncc(C)c(OC)c3C)nc2c1 (stereo not shown) [OP, Omeprazole]
EC50 at 72 h [30]: 3.34 ± 1.39 µM
SLC10A1 gene suppression (reduction) [10]: about 2 fold
EC50 at 72 h [11]: 28.7 ± 7.32 µM
